In US12091426B2, “Bifunctional degraders of hematopoietic progenitor kinase and therapeutic uses thereof” (Nurix Therapeutics, Inc., priority 2021, dated 2024):

Target: T1, HPK1 (Homo sapiens, UniProt Q92918)
T1 construct: A HiBiT tag was introduced by CRISPR on the N terminus of HPK1 in Jurkat cells; host or cells: Jurkat cells (ATCC TIB-152), monoclonal line with CRISPR knock-in of HiBiT at the endogenous HPK1 locus
Assay: HPK1 Cellular HiBit Degradation Assay
Assay type: cell-based
Details: HiBiT HPK1 Jurkat cells, 24 hrs; for DC50: concentration at which 50% of HPK1 was remaining, read-out: DC50 Category; for Dmax: Jurkat, maximum degradation vs DMSO vehicle control, read-out: Dmax Category
Procedure, shortened: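 HPK1 levels are read by HiBiT luminescence after 24 h exposure of HiBiT-knock-in Jurkat cells to compound at 10 uM–0.1 nM final (11 points). Relative to DMSO (100%), DC50 is the concentration leaving 50% HPK1 from a variable-slope fit, and Dmax is 100 minus minimum remaining. Viability checked in-plate.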

T1 sequence (Q92918 whole entry): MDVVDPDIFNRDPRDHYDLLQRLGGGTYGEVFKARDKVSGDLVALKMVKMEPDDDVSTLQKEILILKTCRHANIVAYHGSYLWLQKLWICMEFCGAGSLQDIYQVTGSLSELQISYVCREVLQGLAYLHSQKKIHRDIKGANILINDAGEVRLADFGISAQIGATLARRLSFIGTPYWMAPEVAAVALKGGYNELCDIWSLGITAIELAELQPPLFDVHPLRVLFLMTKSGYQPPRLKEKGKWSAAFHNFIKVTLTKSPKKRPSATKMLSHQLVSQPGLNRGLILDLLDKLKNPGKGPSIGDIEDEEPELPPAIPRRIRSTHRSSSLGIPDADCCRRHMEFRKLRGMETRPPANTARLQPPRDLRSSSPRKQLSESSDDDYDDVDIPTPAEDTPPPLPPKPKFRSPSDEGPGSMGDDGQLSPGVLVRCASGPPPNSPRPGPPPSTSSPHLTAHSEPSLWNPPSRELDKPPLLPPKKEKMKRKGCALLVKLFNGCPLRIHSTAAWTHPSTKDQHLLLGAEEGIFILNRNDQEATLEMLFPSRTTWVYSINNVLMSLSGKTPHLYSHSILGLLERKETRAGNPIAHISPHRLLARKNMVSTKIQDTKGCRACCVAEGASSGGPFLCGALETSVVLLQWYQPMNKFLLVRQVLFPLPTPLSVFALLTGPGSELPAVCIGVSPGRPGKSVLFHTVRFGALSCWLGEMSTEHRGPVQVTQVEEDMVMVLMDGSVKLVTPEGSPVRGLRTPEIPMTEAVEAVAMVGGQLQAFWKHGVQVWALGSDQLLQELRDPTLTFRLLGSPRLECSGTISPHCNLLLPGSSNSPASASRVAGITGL

| SMILES | DC50 [nM] | Dmax [%] |
| --- | --- | --- |
| CC(C)n1cnc2cc(-c3ccc4c(c3)N([C@H]3C[C@@H](N5CCCCC5)C3)C(=O)C43CCN(C(=O)C4(C)CCN(C(=O)C5CCN(c6ccc(C7CCC(=O)NC7=O)cn6)CC5)CC4)CC3)nc(NC3CC4(COC4)C3)c21 (stereo partly drawn) [Example 177, 3-(6-{4-[4-methyl-4-({6-[4-({2-oxaspiro[3.3]heptan-6-yl}amino)-3-(propan-2-yl)-3H-imidazo[4,5-c]pyridin-6-yl]-2-oxo-1-[(1S,3S)-3-(piperidin-1-yl)cyclobutyl]-1,2-dihydrospiro[indole-3,4′-piperidin]-1′-yl}carbonyl)piperidine-1-carbonyl]piperidin-1-yl}pyridin-3-yl)piperidine-2,6-dione] | < 100 | 70 to 85 |
| CC(C)n1cnc2cc(-c3ccc4c(c3)N([C@H]3C[C@@H](N5CCCCC5)C3)C(=O)C43CCN(C(=O)C4(C)CCN(C(=O)C5CCN(c6ccc(C7CCC(=O)NC7=O)cn6)CC5)CC4)CC3)nc(OC3CC3)c21 (stereo partly drawn) [Example 178, 3-(6-{4-[4-({6-[4-cyclopropoxy-3-(propan-2-yl)-3H-imidazo[4,5-c]pyridin-6-yl]-2-oxo-1-[(1S,3S)-3-(piperidin-1-yl)cyclobutyl]-1,2-dihydrospiro[indole-3,4′-piperidin]-1′-yl}carbonyl)-4-methylpiperidine-1-carbonyl]piperidin-1-yl}pyridin-3-yl)piperidine-2,6-dione] | < 100 | > 85 |
| CC(C)n1cnc2cc(-c3ccc4c(c3)N([C@H]3C[C@@H](N5CCCCC5)C3)C(=O)C43CCN(C(=O)C4CCN(C(=O)[C@H]5CC[C@H](n6cc7cc(C8CCC(=O)NC8=O)ccc7n6)CC5)CC4)CC3)nc(NC3CC3)c21 (stereo partly drawn) [Example 179, 3-{2-[(1R,4R)-4-[4-({6-[4-(cyclopropylamino)-3-(propan-2-yl)-3H-imidazo[4,5-c]pyridin-6-yl]-2-oxo-1-[(1S,3S)-3-(piperidin-1-yl)cyclobutyl]-1,2-dihydrospiro[indole-3,4′-piperidin]-1′-yl}carbonyl)piperidine-1-carbonyl]cyclohexyl]-2H-indazol-5-yl}piperidine-2,6-dione] | 100 to 500 | 70 to 85 |
| CC(C)n1cnc2cc(-c3ccc4c(c3)N([C@H]3C[C@@H](N5CCCCC5)C3)C(=O)C43CCN(C(=O)N4CCN(C(=O)C5CCN(c6ccc(C7CCC(=O)NC7=O)cn6)CC5)CC4)CC3)nc(NC3CC3)c21 (stereo partly shown) [Example 180] | < 100 | 70 to 85 |
| CC(C)n1cnc2cc(-c3ccc4c(c3)N([C@H]3C[C@@H](N5CCCCC5)C3)C(=O)C43CCN(C(=O)N4CCC(C(=O)N5CCN(c6ccc(C7CCC(=O)NC7=O)cn6)CC5)CC4)CC3)nc(NC3CC3)c21 (stereo partly drawn) [Example 181, 3-(6-{4-[1-({6-[4-(cyclopropylamino)-3-(propan-2-yl)-3H-imidazo[4,5-c]pyridin-6-yl]-2-oxo-1-[(1S,3S)-3-(piperidin-1-yl)cyclobutyl]-1,2-dihydrospiro[indole-3,4′-piperidin]-1′-yl}carbonyl)piperidine-4-carbonyl]piperazin-1-yl}pyridin-3-yl)piperidine-2,6-dione] | 100 to 500 | 50 to 70 |
| CC(C)n1cnc2cc(-c3ccc4c(c3)N([C@H]3C[C@@H](N5CCCCC5)C3)C(=O)C43CCN(C(=O)C4CC5(C4)CN(C(=O)C4CCN(c6ccc(C7CCC(=O)NC7=O)cn6)CC4)C5)CC3)nc(NC3CC3)c21 (stereo partly drawn) [Example 182, 3-(6-{4-[6-({6-[4-(cyclopropylamino)-3-(propan-2-yl)-3H-imidazo[4,5-c]pyridin-6-yl]-2-oxo-1-[(1S,3S)-3-(piperidin-1-yl)cyclobutyl]-1,2-dihydrospiro[indole-3,4′-piperidine]-1′-yl}carbonyl)-2-azaspiro[3.3]heptane-2-carbonyl]piperidin-1-yl}pyridin-3-yl)piperidine-2,6-dione] | < 100 | > 85 |
| CC(C)n1cnc2cc(-c3ccc4c(c3)N(C3CC(N5CCCCC5)C3)C(=O)C43CCN(CC(=O)N4CCN(C(=O)C5CCN(c6ccc(C7CCC(=O)NC7=O)cn6)CC5)CC4)CC3)nc(NC3CC3)c21 (stereo not shown) [Example 183, 3-(6-{4-[4-(2-{6-[4-(cyclopropylamino)-3-(propan-2-yl)-3H-imidazo[4,5-c]pyridin-6-yl]-2-oxo-1-[3-(piperidin-1-yl)cyclobutyl]-1,2-dihydrospiro[indole-3,4′-piperidine]-1′-yl}Acetyl)piperazine-1-carbonyl]piperidin-1-yl}pyridin-3-yl)piperidine-2,6-dione] | < 100 | > 85 |
| CC(C)n1cnc2cc(-c3ccc4c(c3)N([C@H]3C[C@@H](N5CCCCC5)C3)C(=O)C43CCN(C(=O)C4(C)CCN(C(=O)N5CC6(C5)CN(c5ccc(C7CCC(=O)NC7=O)cn5)C6)CC4)CC3)nc(NC3CC3)c21 (stereo partly drawn) [Example 184, 3-(6-{6-[4-({6-[4-(cyclopropylamino)-3-(propan-2-yl)-3H-imidazo[4,5-c]pyridin-6-yl]-2-oxo-1-[(1S,3S)-3-(piperidin-1-yl)cyclobutyl]-1,2-dihydrospiro[indole-3,4′-piperidine]-1′-yl}carbonyl)-4-methylpiperidine-1-carbonyl]-2,6-diazaspiro[3.3]heptan-2-yl}pyridin-3-yl)piperidine-2,6-dione] | 100 to 500 | 50 to 70 |
| CC(C)n1cnc2cc(-c3ccc4c(c3)N([C@H]3C[C@@H](N5CCCCC5)C3)C(=O)C43CCN(C(=O)C4(C)CCN(C(=O)[C@H]5CC[C@H](Nc6ccc(N7CCC(=O)NC7=O)cn6)CC5)CC4)CC3)nc(NC3CC3)c21 [Example 192, 1-(6-{[(1R,4R)-4-[4-({6-[4-(cyclopropylamino)-3-(propan-2-yl)-3H-imidazo[4,5-c]pyridin-6-yl]-2-oxo-1-[(1S,3S)-3-(piperidin-1-yl)cyclobutyl]-1,2-dihydrospiro[indole-3,4′-piperidin]-1′-yl}carbonyl)-4-methylpiperidine-1-carbonyl]cyclohexyl]amino}pyridin-3-yl)-1,3-diazinane-2,4-dione] | < 100 | 70 to 85 |
| CC(C)n1cnc2cc(-c3ccc4c(c3)N([C@H]3C[C@@H](N5CCCCC5)C3)C(=O)C43CCN(CC(=O)N(C)C4CCN(C(=O)C5CCN(c6ccc(C7CCC(=O)NC7=O)cn6)CC5)CC4)CC3)nc(NC3CC3)c21 (stereo partly drawn) [Example 200, 2-{6-[4-(cyclopropylamino)-3-(propan-2-yl)-3H-imidazo[4,5-c]pyridin-6-yl]-2-oxo-1-[(1S,3S)-3-(piperidin-1-yl)cyclobutyl]-1,2-dihydrospiro[indole-3,4′-piperidin]-1′-yl}-N-(1-{1-[5-(2,6-dioxopiperidin-3-yl)pyridin-2-yl]piperidine-4-carbonyl}piperidin-4-yl)-N-methylacetamide] | 100 to 500 | > 85 |
| CC(C)n1cnc2cc(-c3ccc4c(c3)N([C@H]3C[C@@H](N5CCCCC5)C3)C(=O)C43CCN(CC(=O)N(C)C4CCN(C(=O)C5CCN(c6cc(C7CCC(=O)NC7=O)ccn6)CC5)CC4)CC3)nc(NC3CC3)c21 (stereo partly drawn) [Example 201, 2-{6-[4-(cyclopropylamino)-3-(propan-2-yl)-3H-imidazo[4,5-c]pyridin-6-yl]-2-oxo-1-[(1S,3S)-3-(piperidin-1-yl)cyclobutyl]-1,2-dihydrospiro[indole-3,4′-piperidin]-1′-yl}-N-(1-{1-[4-(2,6-dioxopiperidin-3-yl)pyridin-2-yl]piperidine-4-carbonyl}piperidin-4-yl)-N-methylacetamide] | 100 to 500 | 50 to 70 |
